Data taken from publication PMC12307992, “The Potential Influence of Associated Antidepressants on the Pharmacokinetic Profile of Esketamine in Patients Affected by Treatment-resistant Depression” (Current Neuropharmacology, 2025).

What was measured:
[1] = parameters: method as in earlier work; settings: ref Data on File. Esketamine. Summary of Clinical Pharmacology. Janssen Research & Development, LLC. EMDS-ERI-149761559; 2018; cited from earlier work
[2] = after intranasal administration; cited from earlier work
[3] = Adverse events 20 min post-esketamine (blood pressure, dizziness, confusion, ACES) in relation to serum levels; format: in vivo, patients
Protocol: Adverse events of intranasal administration of esketamine were evaluated 20 min post-esketamine initiation, such as changes in systolic and diastolic blood pressure, vertigo, dissociation, dizziness, sedation, headache, nausea and vomiting, and confusion.
(§1) To assess the changes in clinical status with treatment, we administered the following clinical scales at BL and one month after the first intranasal esketamine: clinician-rated Brief Psychiatric Rating Scale-version 4.0 (BPRS-24) to evaluate psychiatric symptoms; Montgomery-Åsberg Depression Rating Scale (MADRS) and Hamilton Depression Rating Scale (HAM-D) to assess depression; Hamilton Anxiety Rating Scale (HAM-A) to assess anxiety; Young Mania Rating Scale (YMRS) to assess manic symptoms, Clinical Global Impressions Scale (CGI) to assess the overall severity (CGI-S) and improvement (CGI-I), with CGI-S administered at both timepoints and CGI-I only at 1 month. Self-rated scales included the Beck Depression Inventory, 2nd edition (BDI-II), used to assess the cognitive aspects of depression (Beck’s cognitive triad), and the World Health Organization Quality of Life Scale-Brief (WHOQOL-BREF) to assess patient’s quality-of-life (QoL). For all scales save the WHOQOL-BREF, higher scores indicate higher psychopathology, while for the WHOQOL-BREF, higher scores reflect better QoL. Furthermore, we administered the clinician-rated Agitation-Calmness Evaluation Scale (ACES) to assess agitation vs. sedation during the first esketamine administration phase (BL to 72 hours). ACES is a single-item scale, in which scores from 1 to 3 are inversely related to the degree of agitation, and scores from 5 to 9 are directly related to calmness and sedation, until the score of 8 and 9, which indicate deep sleep and unarousable state, respectively. Finally, we evaluated dissociation with the Clinician-Administered Dissociative States Scale (CADSS) following the first esketamine administration (BL to 72 hours).
After having applied the Shapiro-Wilk test to ascertain the normality of distribution of our sample and the Mauchly sphericity test to assess the validity of the Analysis of Variance (ANOVA), we proceeded by performing parametric tests. We used the ANOVA-1way to compare samples for continuous variables and Fishers Least Significant Difference (LSD) to test differences in nominal variables. We used Grubbs’ test (alpha=0.05) to identify statistically significant outliers to exclude them from further analyses. Correlations were sought through Pearson’s r correlation coefficient. Besides concentrations, we calculated the area under the curve (AUC) as stated above. For all other calculations, we used the IBM Statistical Package for the Social Sciences (SPSS), version 29.0 (September 2022, Armonk, New York: IBM Corporation).

[4] = Serum esketamine levels (LC-MS/MS) after intranasal esketamine 56 mg in TRD patients; settings: for AUC: human, serum, other: intranasal, 56 mg, AUC value, 0-72 h
[5] = phase 3 studies; cited from earlier work
[6] = Salivary esketamine levels (LC-MS/MS) after intranasal esketamine 56 mg in TRD patients
[7] = Clinical rating scales at baseline and one month after first intranasal esketamine; format: in vivo, patients
Description: as §1

[8] = 20 min post-esketamine, 15 patients
[9] = one month following initial esketamine administration, 15 patients

Structure (SMILES): CC[C@H]1OC(=O)[C@H](C)[C@@H](O[C@H]2C[C@@](C)(OC)[C@@H](O)[C@H](C)O2)[C@H](C)[C@@H](O[C@@H]2O[C@H](C)C[C@H](N(C)C)[C@H]2O)[C@](C)(OC)C[C@@H](C)C(=O)[C@H](C)[C@@H](O)[C@]1(C)O [clarithromycine]
- Effect of co-treatment on the PK profile of esketamine [1]: negligible effect

Structure (SMILES): CN[C@]1(c2ccccc2Cl)CCCCC1=O [esketamine, (S)-isomer of ketamine]
- elimination half-life (t½) [2]: 7 to 12 h
- time to reach maximum plasma concentrations (Tmax) [2]: 0.333 to 0.667 h
- Correlation (χ2) of confusion with serum esketamine levels ([3]; 20 min post-administration, p < 0.05): 3.830
- Correlation (χ2) of dizziness with serum esketamine levels ([3]; 20 min post-administration, p = 0.043): 4.114
- Patients with blood pressure reduced [3, 8]: 28.3%
- Patients with blood pressure relatively unchanged [3, 8]: 28.3%
- Patients with a rise in systolic blood pressure ([3]; 20 min post-esketamine, 23 of 53 patients): 43.4%
- Correlation (r) between serum esketamine values and changes in systolic blood pressure ([3]; at 20 min, p = 0.0003): 0.23
- Correlation (r) between esketamine levels and changes in ACES ([3]; at 20 minutes, p = 0.02): 0.1
- Serum esketamine levels after 72 hours ([4]; 56 mg intranasal, all groups): undetectable
- AUC value of patient greater than average value of the group ([4]; group 2 patient on oxcarbazepine vs group 2 average): 46%
- AUC ([4]; average of group, group 1 (paroxetine/fluoxetine)): 868 ng·h/mL
- AUC ([4]; average of group, group 2 (duloxetine)): 655 ng·h/mL
- AUC ([4]; average of group, group 3 (venlafaxine/desvenlafaxine)): 857 ng·h/mL
- AUC ([4]; average of group, group 4 (sertraline/citalopram/escitalopram)): 419 ng·h/mL
- AUC ([4]; average of group, group 5 (vortioxetine)): 439 ng·h/mL
- AUC ([4]; average of group, group 6 (TCAs/mirtazapine/trazodone)): 705 ng·h/mL
- AUC ([4]; single patient, group 1 patient on paroxetine, bupropion, valproate and atorvastatine): 628 ng·h/mL
- AUC ([4]; single patient, group 2 patient also on oxcarbazepine): 954 ng·h/mL
- AUC ([4]; single patient, group 3 patient also on valproate): 298 ng·h/mL
- AUC ([4]; single patient, group 3 patient also on valproate and atorvastatin): 599 ng·h/mL
- AUC ([4]; single patient, group 4 patient also on topiramate): 921 ng·h/mL
- AUC ([4]; single patient, group 5 patient also on prednisone): 957 ng·h/mL
- AUC ([4]; single patient, group 6 patient on mirtazapine and oxcarbazepine): 260 ng·h/mL
- Patients with a rise in blood pressure [5]: < 10%
- Salivary levels of esketamine at 20 min relative to serum levels ([6]; 56 mg intranasal): several-fold greater than serum levels
- Esketamine levels in the saliva after 72 hours ([6]; a few patients on fluoxetine/paroxetine, duloxetine or venlafaxine/desvenlafaxine): still detectable
- concentration at 20 min ([6]; human, saliva, other: intranasal, 56 mg): > 1000 ng/mL
- Global scores of all clinical scales (BPRS-Total, MADRS, BDI, WHOQOL-BREF or CGI) ([7]; 1 month after esketamine administration): improved
- YMRS values ([7]; absolute score, all patients): < 8
- Patients in whom HAM-A values dropped ([7]; baseline to 1 month): 51 of 53
- Patients with YMRS scores increased [7, 9]: 28.3%
- Patients with YMRS scores unchanged [7, 9]: 28.3%
- Patients with YMRS scores decreased ([7]; one month following initial esketamine administration, 23 patients): 43.4%
